Drawing on ChEMBL document CHEMBL5154751, “Intramolecular Interactions Enhance the Potency of Gallinamide A Analogues against Trypanosoma cruzi” (J Med Chem, 2022), this text covers CC50, EC50 and IC50 for 26 compounds.

Data set [1] can be described thus: Cytotoxicity against mouse C2C12 cells assessed as lethal dose. The class given is toxicity, cell-based. The note with it: read-out: LD50 (the source's name).
The next data set deals with Trypanosoma cruzi. Put plainly: Antitrypanosomal activity against amastigotes form of Trypanosoma cruzi CA-I/72 infected in mouse C2C12 cells assessed as parasite infection level by DAPI staining based microscopic analysis. The class given is functional, organism-based. The settings on record: CA-I/72, C2C12.
For the next data set, the target named is Cruzipain (Trypanosoma cruzi, UniProt P25779). Put plainly: Inhibition of Trypanosoma cruzi cruzain using Z-FR-AMC as substrate preincubated for 10 mins followed by substrate addition by fluorimetric analysis.
Chain of Cruzipain (P25779 whole entry): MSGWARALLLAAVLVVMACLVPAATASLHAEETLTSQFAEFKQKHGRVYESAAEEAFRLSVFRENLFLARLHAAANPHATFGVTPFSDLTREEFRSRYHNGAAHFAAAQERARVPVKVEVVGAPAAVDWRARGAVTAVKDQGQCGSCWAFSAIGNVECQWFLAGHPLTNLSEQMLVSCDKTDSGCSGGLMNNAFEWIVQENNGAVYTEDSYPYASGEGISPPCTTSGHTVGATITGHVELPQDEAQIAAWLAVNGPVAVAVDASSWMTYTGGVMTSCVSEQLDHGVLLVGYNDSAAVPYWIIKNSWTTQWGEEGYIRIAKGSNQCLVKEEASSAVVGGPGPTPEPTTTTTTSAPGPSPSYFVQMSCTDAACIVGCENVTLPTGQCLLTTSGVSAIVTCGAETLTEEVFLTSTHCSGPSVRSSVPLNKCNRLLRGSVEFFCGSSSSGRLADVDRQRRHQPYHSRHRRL

One may read the EC50 as the concentration that produces a half-maximal response. As usually defined, the IC50 is the concentration that gives 50% inhibition. Lower therefore signals greater potency in that assay.

Where only a bound is given, the exact number is not on record here.

With `COC1=CC(=O)N(C(=O)/C=C/[C@H](CCc2ccccc2)NC(=O)[C@H](CC(C)C)NC(=O)[C@H](CC(C)C)NC(=O)C2CCN(C)CC2)C1Cc1ccc(-c2ccc(C#N)cc2)cc1` (some centres undefined), the CC50 in data set [1] is > 600 nM. For the same compound, in the data set on Trypanosoma cruzi, the 50% effective concentration (EC50) was 423 nM. For the same compound, the concentration for half-maximal inhibition (IC50) against Cruzipain turned out to be 0.13 nM. Taken in the same sequence, the figures for `COC1=CC(=O)N(C(=O)/C=C/[C@@H](CCc2ccccc2)NC(=O)[C@H](CC(C)C)NC(=O)[C@H](CC(C)C)NC(=O)[C@H](C(C)C)N(C)C)C1Cc1ccc(-c2ccccc2)cc1` (some centres undefined) were > 600 nM, 13 nM and 0.12 nM. Taken in the same sequence, the figures for `COC1=CC(=O)N(C(=O)/C=C/[C@@H](CCc2ccccc2)NC(=O)[C@H](CC(C)C)NC(=O)[C@H](CC(C)C)NC(=O)[C@H](C(C)C)N(C)C)C1Cc1ccc(-c2ccc(C#N)cc2)cc1` (some centres undefined) were > 600 nM, 19 nM and 0.11 nM.

On to `COC1=CC(=O)N(C(=O)/C=C/[C@H](C)NC(=O)[C@H](CC(C)C)NC(=O)[C@H](CC(C)C)NC(=O)[C@H](C(C)C)N(C)C)[C@H]1Cc1c[nH]c2ccccc12`, for which, in data set [1], the CC50 is > 600 nM.

As for `COC1=CC(=O)N(C(=O)/C=C/[C@H](C)NC(=O)[C@H](CC2CCCCC2)NC(=O)[C@H](CC(C)C)NC(=O)C2CCN(C)CC2)[C@H]1Cc1c[nH]c2ccccc12`, in data set [1], the CC50 was > 600 nM. Regarding `COC1=CC(=O)N(C(=O)/C=C/[C@H](CCc2ccccc2)NC(=O)[C@H](CC(C)C)NC(=O)[C@H](CC(C)C)NC(=O)C2CCN(C)CC2)C1Cc1ccc(-c2ccccc2)cc1` (some centres undefined), the CC50 in data set [1] was > 600 nM. Further, the concentration for a half-maximal effect (EC50) in the data set with Trypanosoma cruzi stood at 222 nM. Further, the half-maximal inhibitory concentration (IC50) on Cruzipain was determined as 0.4 nM. As to `COC1=CC(=O)N(C(=O)/C=C/[C@H](C)NC(=O)[C@H](CC2CCCCC2)NC(=O)[C@H](CC2CCCCC2)NC(=O)[C@H](C(C)C)N(C)C)[C@H]1Cc1c[nH]c2ccccc12`, in data set [1], the CC50 was > 600 nM. With `COC1=CC(=O)N(C(=O)/C=C/[C@@H](CCc2ccccc2)NC(=O)[C@H](CC(C)C)NC(=O)[C@H](CC(C)C)NC(=O)[C@H](C(C)C)N(C)C)C1Cc1ccc(-c2ccc3ccccc3c2)cc1` (some centres undefined), the CC50 in data set [1] is > 600 nM. Moreover, the EC50 in the data set with Trypanosoma cruzi was 59 nM. The same compound registered an IC50 against Cruzipain of 0.69 nM. Regarding `COC1=CC(=O)N(C(=O)/C=C/[C@H](C)NC(=O)[C@H](CC(C)C)NC(=O)[C@H](CC2CCCCC2)NC(=O)C2CCN(C)CC2)[C@H]1Cc1c[nH]c2ccccc12`, the CC50 in data set [1] is > 600 nM.

Turning to `COC1=CC(=O)N(C(=O)/C=C/[C@@H](NC(=O)[C@H](CC(C)C)NC(=O)[C@H](CC2CCCCC2)NC(=O)[C@H](C(C)C)N(C)C)C2CCCCC2)[C@H]1Cc1c[nH]c2ccccc12`, the CC50 in data set [1] is > 600 nM. With `COC1=CC(=O)N(C(=O)/C=C/[C@H](CCc2ccccc2)NC(=O)[C@H](CC(C)C)NC(=O)[C@H](CC(C)C)NC(=O)C2CCN(C)CC2)C1Cc1ccc(-c2ccc(C(F)(F)F)cc2)cc1` (some centres undefined), the CC50 in data set [1] is > 600 nM. Moreover, the EC50 in the data set on Trypanosoma cruzi worked out at 420 nM. In addition, the 50% inhibitory concentration (IC50) against Cruzipain came out at 0.79 nM. Regarding `CC[C@H](C)[C@@H](C(=O)O[C@@H](CC(C)C)C(=O)N[C@@H](CC(C)C)C(=O)N[C@@H](C)/C=C/C(=O)N1C(=O)C=C(OC)[C@@H]1C)N(C)C` [GALLINAMIDE A], the CC50 in data set [1] is > 600 nM. Besides, the 50% inhibitory concentration (IC50) against Cruzipain is 1.3 nM. For `COC1=CC(=O)N(C(=O)/C=C/[C@@H](CCc2ccccc2)NC(=O)[C@H](CC(C)C)NC(=O)[C@H](CC(C)C)NC(=O)[C@H](C(C)C)N(C)C)C1Cc1ccc(-c2ccc(OC)cc2)cc1` (some centres undefined), the CC50 in data set [1] was > 600 nM. Further, the half-maximal effective concentration (EC50) with Trypanosoma cruzi was found to be 19 nM. In addition, the IC50 against Cruzipain came to 0.28 nM. For the compound `COC1=CC(=O)N(C(=O)/C=C/[C@H](CCc2ccccc2)NC(=O)[C@H](CC(C)C)NC(=O)[C@H](CC(C)C)NC(=O)C2CCN(C)CC2)C1Cc1ccc(-c2ccc3ccccc3c2)cc1` (some centres undefined), the CC50 in data set [1] was > 600 nM. In the data set with Trypanosoma cruzi, the EC50 stood at 521 nM. Besides, inhibition on Cruzipain was half-maximal at 1.56 nM (IC50). For `CCCC[C@H]1O[C@@H]1/C=C/C=O`, the CC50 in data set [1] is > 600 nM. The compound further registered an IC50 on Cruzipain of 29.7 nM. As for `COC1=CC(=O)N(C(=O)/C=C/[C@H](C)NC(=O)[C@H](CC(C)C)NC(=O)[C@H](CC(C)C)NC(=O)C2CCN(C)CC2)[C@H]1Cc1c[nH]c2ccccc12`, the CC50 in data set [1] is > 600 nM. With `O=C(Cn1ccnc1[N+](=O)[O-])NCc1ccccc1` [BENZNIDAZOLE], the CC50 in data set [1] is > 600 nM. In addition, in the data set on Trypanosoma cruzi, the EC50 came out at 1910 nM. For `COC1=CC(=O)N(C(=O)/C=C/[C@H](C)NC(=O)[C@H](CC(C)C)NC(=O)[C@H](Cc2ccccc2)NC(=O)[C@H](C(C)C)N(C)C)[C@H]1Cc1c[nH]c2ccccc12`, the CC50 in data set [1] was > 600 nM. Take `COC1=CC(=O)N(C(=O)/C=C/[C@@H](CCc2ccccc2)NC(=O)[C@H](CC(C)C)NC(=O)[C@H](CC(C)C)NC(=O)[C@H](C(C)C)N(C)C)C1Cc1ccc(-c2ccc(C(F)(F)F)cc2)cc1` (some centres undefined): the CC50 in data set [1] was > 600 nM. For the same compound, in the data set with Trypanosoma cruzi, the EC50 came to 78 nM. In addition, it took 0.68 nM to reach half-maximal inhibition at Cruzipain (IC50).

For the compound `COC1=CC(=O)N(C(=O)/C=C/[C@H](C)NC(=O)[C@H](CCc2ccccc2)NC(=O)[C@H](CC2CCCCC2)NC(=O)[C@H](C(C)C)N(C)C)[C@H]1Cc1c[nH]c2ccccc12`, the CC50 in data set [1] is > 600 nM. Same read-out and setting: under `COC1=CC(=O)N(C(=O)/C=C/[C@H](C)NC(=O)[C@H](CCc2ccccc2)NC(=O)[C@H](CC(C)C)NC(=O)[C@H](C(C)C)N(C)C)[C@H]1Cc1c[nH]c2ccccc12` stands > 600 nM.

Consider `COC1=CC(=O)N(C(=O)/C=C/[C@H](C)NC(=O)[C@H](CC(C)C)NC(=O)[C@H](CC2CCCCC2)NC(=O)[C@H](C(C)C)N(C)C)[C@H]1Cc1c[nH]c2ccccc12`, for which, in data set [1], the CC50 is > 600 nM. Turning to `COC1=CC(=O)N(C(=O)/C=C/[C@H](CCc2ccccc2)NC(=O)[C@H](CC(C)C)NC(=O)[C@H](CC(C)C)NC(=O)C2CCN(C)CC2)C1Cc1ccc(-c2ccc(OC)cc2)cc1` (some centres undefined), the CC50 in data set [1] is > 600 nM. Moreover, in the data set with Trypanosoma cruzi, the 50% effective concentration (EC50) turned out to be 261 nM. This compound also came in with a concentration for half-maximal inhibition (IC50) against Cruzipain of 0.26 nM. Consider `COC1=CC(=O)N(C(=O)/C=C/[C@H](CCc2ccccc2)NC(=O)[C@H](CC(C)C)NC(=O)[C@H](CC(C)C)NC(=O)[C@H](C(C)C)N(C)C)[C@H]1Cc1c[nH]c2ccccc12`, for which the CC50 in data set [1] was > 600 nM. On the same count and under the same terms, the value for `COC1=CC(=O)N(C(=O)/C=C/[C@H](C)NC(=O)[C@H](CC2CCCCC2)NC(=O)[C@H](CC(C)C)NC(=O)[C@H](C(C)C)N(C)C)[C@H]1Cc1c[nH]c2ccccc12` was > 600 nM. The same measure, in the same setting: the value for `COC1=CC(=O)N(C(=O)/C=C/[C@H](C)NC(=O)[C@H](CC2CCCCC2)NC(=O)[C@H](CC2CCCCC2)NC(=O)C2CCN(C)CC2)[C@H]1Cc1c[nH]c2ccccc12` was > 600 nM.
